From ChEMBL document CHEMBL5303304, “EUbOPEN Chemogenomics Library - IncuCyte” (2023)
Several values for one entry are separate records, joined by “and”; a condition that tells them apart may be missing. Equal values may be shown once.

Key:
Type in all cases: toxicity, cell-based
U2OS = assay: Incucyte cell viability with U2OS; details: human, 10 µM, compound concentration 10 uM
HEK-293T = assay: Incucyte cell viability with HEK293T; details: human, 10 µM, compound concentration 10 uM
Fibroblast = assay: Incucyte cell viability with human fibroblast; details: 10 µM, compound concentration 10 uM
Also: unitless GR value; below 1 slowed growth and below 0 cell loss.

| SMILES | Growth Rate (U2OS; 0 h, replicate number 2) | Growth Rate (U2OS; 6 h, replicate number 1) | Growth Rate (U2OS; 6 h, replicate number 2) | Growth Rate (U2OS; 12 h, replicate number 2) | Growth Rate (U2OS; 18 h, replicate number 2) | Growth Rate (U2OS; 24 h, replicate number 2) | Growth Rate (Fibroblast; 12 h, replicate number 2) | Growth Rate (Fibroblast; 18 h, replicate number 2) | Growth Rate (Fibroblast; 24 h, replicate number 1) | Growth Rate (Fibroblast; 24 h, replicate number 2) | Growth Rate (U2OS; 12 h, replicate number 1) | Growth Rate (U2OS; 18 h, replicate number 1) | Growth Rate (HEK-293T; 6 h, replicate number 2) | Growth Rate (HEK-293T; 12 h, replicate number 2) | Growth Rate (Fibroblast; 6 h, replicate number 2) | Growth Rate (Fibroblast; 6 h, replicate number 1) | Growth Rate (Fibroblast; 18 h, replicate number 1) | Growth Rate (HEK-293T; 18 h, replicate number 2) | Growth Rate (HEK-293T; 24 h, replicate number 2) | Growth Rate (Fibroblast; 12 h, replicate number 1) | other results |
| --- | --- | --- | --- | --- | --- | --- | --- | --- | --- | --- | --- | --- | --- | --- | --- | --- | --- | --- | --- | --- | --- |
| O=C(Nc1ccc(-n2nc(-c3cccnc3)cc2C(F)(F)F)cn1)c1ccc(-c2ccccc2)c(F)c1 [BI 2049] | -0.06 | 0.83 | 0.46 | 0.84 | 0.93 | 0.97 | 0.85 | 0.98 | 0.99 | 0.91 | – | – | – | – | – | – | – | – | – | – | Growth Rate (HEK-293T; 0 h, replicate number 1): -0.8; Growth Rate (HEK-293T; 0 h, replicate number 2): 0.47 |
| CCNC(=O)c1ccc2c(c1)NC(=O)/C2=C(\Nc1ccc(CN(C)C)cc1)c1ccccc1 | 0.96 | 0.67 and 0.82 | 1 | 0.85 | 0.8 | 0.83 | 0.8 | – | – | – | 0.63 and 0.95 | 0.75 and 0.9 | 0.16 | 0.83 | 0.09 | – | – | – | – | – | Growth Rate (U2OS; 24 h, replicate number 1): 0.84 and 0.87; Growth Rate (HEK-293T; 0 h, replicate number 2): -1; Growth Rate (Fibroblast; 0 h, replicate number 2): 0.87 |
| CN(C)[C@H]1CCN(c2cc(C(F)(F)F)c(C#N)c(Nc3cccc(CCC(=O)O)c3)n2)C1.O=C(O)C(F)(F)F | 0.54 | 0.63 | 0.38 | 0.78 | 0.89 | 0.88 | 0.75 | 0.93 | – | 0.72 | – | – | – | – | -0.53 | 0.81 | 0.99 | – | – | – | Growth Rate (U2OS; 0 h, replicate number 1): 0.61; Growth Rate (HEK-293T; 0 h, replicate number 2): 0.79; Growth Rate (HEK-293T; 6 h, replicate number 1): 0.73; Growth Rate (HEK-293T; 12 h, replicate number 1): 0.95; Growth Rate (HEK-293T; 18 h, replicate number 1): 0.94 |
| COc1ccc(OC(=O)N(CC(=O)O)Cc2ccc(OCCc3nc(-c4ccccc4)oc3C)cc2)cc1 [MURAGLITAZAR] | 0.98 | – | 0.71 | 0.94 | – | 0.87 | 0.56 | 0.72 | – | 0.97 | – | – | 0.07 | 0.42 | 0.43 | 0.85 | 0.79 | 0.51 | 0.5 | 0.76 | Growth Rate (U2OS; 0 h, replicate number 1): -0.96; Growth Rate (HEK-293T; 0 h, replicate number 2): -1; Growth Rate (HEK-293T; 6 h, replicate number 1): 0.89; Growth Rate (HEK-293T; 12 h, replicate number 1): 0.94 |
| COc1cc2nc(C)nc(NC3(c4ccccc4)CC3)c2cc1OC | – | 0.52 | – | 0.97 | – | – | 0.7 | – | – | – | 0.94 | 0.94 | – | – | 0.66 | 0.99 | – | – | – | 0.99 | Growth Rate (U2OS; 24 h, replicate number 1): 0.86; Growth Rate (HEK-293T; 18 h, replicate number 1): 0.87; Growth Rate (HEK-293T; 24 h, replicate number 1): 0.93; Growth Rate (Fibroblast; 0 h, replicate number 2): 0.11 |
| CCCCCCCC/C=C\CCCCCCCC(=O)NCCO [OLEOYLETHANOLAMIDE] | 0.62 | 0.87 | 0.54 | 0.68 | 0.74 | 0.76 | 0.96 | – | 0.78 | 0.98 | 0.87 | 0.81 | 0.43 | 0.83 | – | 0.19 | 0.35 | 0.75 | 0.62 | 0.64 | Growth Rate (U2OS; 0 h, replicate number 1): -0.18; Growth Rate (U2OS; 24 h, replicate number 1): 0.79; Growth Rate (HEK-293T; 0 h, replicate number 1): -0.38 |
| CCN(C)S(=O)(=O)Nc1cccc(-c2ccc3c(NC(=O)C4CC4)n[nH]c3c2)c1 | -0.42 | -0.66 | -0.06 | 0.08 | 0.1 | 0.17 | -0.25 | -0.16 | 0.13 | -0.03 | -0.32 | -0.12 | -0.69 | -0.46 | -0.37 | -0.58 | -0.01 | -0.33 | -0.21 | -0.17 | Growth Rate (U2OS; 24 h, replicate number 1): 0.11; Growth Rate (HEK-293T; 6 h, replicate number 1): -0.21; Growth Rate (HEK-293T; 12 h, replicate number 1): -0.1; Growth Rate (HEK-293T; 18 h, replicate number 1): -0.03; Growth Rate (HEK-293T; 24 h, replicate number 1): 0 |
| C[C@]12CC[C@@H]3c4ccc(O)cc4CC[C@H]3[C@@H]1C[C@H]1OC(=O)C[C@]12O | 0.2 | 0.43 | -0.19 | 0.26 | 0.65 | 0.72 | -0.36 | 0.13 | 0.77 | 0.48 | 0.21 | 0.38 | – | 0.34 | -0.98 | 0.09 | 0.55 | 0.67 | 0.86 | 0.52 | Growth Rate (U2OS; 0 h, replicate number 1): 0.82; Growth Rate (U2OS; 24 h, replicate number 1): 0.6; Growth Rate (HEK-293T; 6 h, replicate number 1): 0.27; Growth Rate (HEK-293T; 12 h, replicate number 1): 0.37; Growth Rate (HEK-293T; 18 h, replicate number 1): 0.36; Growth Rate (HEK-293T; 24 h, replicate number 1): 0.53; Growth Rate (Fibroblast; 0 h, replicate number 1): -1 |
| COc1ccc(CCCN2CCC(COC(c3ccccc3)c3ccccc3)CC2)cc1.Cl | – | – | – | – | – | – | -0.74 | -0.39 | 0.17 | -0.23 | – | – | -0.09 | 0.28 | -1 | – | -0.16 | 0.26 | 0.31 | -0.98 | Growth Rate (U2OS; 0 h, replicate number 1): 0.33; Growth Rate (HEK-293T; 6 h, replicate number 1): -0.53; Growth Rate (HEK-293T; 12 h, replicate number 1): -0.23; Growth Rate (HEK-293T; 18 h, replicate number 1): -0.02; Growth Rate (HEK-293T; 24 h, replicate number 1): 0.24 |
| OC(c1ccc(-c2ccc(CN3CCN(Cc4ccncc4)CC3)cc2)c(F)c1)(C(F)(F)F)C(F)(F)F | – | 0.85 | 0.88 | – | 0.78 | 0.71 | -0.38 | -0.18 | 0.39 | -0.02 | 0.84 | 0.93 | 0.22 | 0.08 | -0.55 | -0.31 | 0.24 | 0.23 | 0.29 | 0.07 | Growth Rate (U2OS; 0 h, replicate number 1): 0.44; Growth Rate (HEK-293T; 0 h, replicate number 2): -0.93; Growth Rate (HEK-293T; 6 h, replicate number 1): -0.1; Growth Rate (HEK-293T; 12 h, replicate number 1): -0.03; Growth Rate (HEK-293T; 18 h, replicate number 1): 0.02; Growth Rate (HEK-293T; 24 h, replicate number 1): 0.09; Growth Rate (Fibroblast; 0 h, replicate number 1): 0.65 |
| Cn1c(=O)n(CCCO)c(=O)c2c1nc(Oc1cccc(Cl)c1)n2Cc1ccc(Cl)cc1 | – | 0.38 | – | 0.93 | 0.82 | 0.89 | 0.66 | – | – | 0.85 | – | 0.86 | 0.26 | 0.77 | -0.99 | – | 0.33 | 0.84 | 0.83 | – | Growth Rate (U2OS; 24 h, replicate number 1): 0.94; Growth Rate (HEK-293T; 0 h, replicate number 2): 0.3 |
| CCCN1CCC(C#N)(NC(=O)[C@H](CC(C)(C)C)NC(=O)N2CCOCC2)CC1 | 0.82 | 0.96 | – | – | – | – | 0.45 | – | 0.83 | – | – | – | – | – | – | 0.97 | 0.88 | – | – | 0.82 | Growth Rate (HEK-293T; 0 h, replicate number 1): 0.04; Growth Rate (Fibroblast; 0 h, replicate number 2): -0.89 |
| CC(C)(C)c1cnc(CSc2cnc(NC(=O)C3CCN(CC(=O)NCCOCCOCCOCCNc4cccc5c4C(=O)N(C4CCC(=O)NC4=O)C5=O)CC3)s2)o1 (stereo not drawn) | 0.98 | 0.29 | 0.25 | 0.19 | -0.02 | -0.04 | -0.09 | -0.15 | 0.11 | -0.12 | 0.31 | 0.16 | -0.74 | -0.62 | 0.11 | 0.1 | -0.02 | -0.5 | -0.39 | -0.04 | Growth Rate (U2OS; 24 h, replicate number 1): -0.05; Growth Rate (HEK-293T; 6 h, replicate number 1): -0.56; Growth Rate (HEK-293T; 12 h, replicate number 1): -0.47; Growth Rate (HEK-293T; 18 h, replicate number 1): -0.38; Growth Rate (HEK-293T; 24 h, replicate number 1): -0.29; Growth Rate (Fibroblast; 0 h, replicate number 1): -0.99 |
